Measurements taken from patent US7138361B2, “Herbicidal heterocycles” (E. I. du Pont de Nemours and Company, priority 2000, dated 2006).

Key:
Format in all cases: in vivo
[1] = test system: blackgrass (Alopecurus myosuroides); assay: Test B postemergence; settings: 13 to 15 days
Method in brief: (§1)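 Preemergence: seeds planted and treated with test chemicals in non-phytotoxic solvent with surfactant; postemergence on plants 2–18 cm (1- to 4-leaf stage). Kept in greenhouse 13–15 days, then visually rated against controls on a 0 (no effect) to 100 (complete control) scale.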

[2] = test system: lambsquarters (Chenopodium album); assay: Test B postemergence; settings: 13 to 15 days
Method in brief: as §1

[3] = test system: barnyardgrass (Echinochloa crus-galli); assay: Test C flooded paddy test; settings: for Barnyardgrass plant response rating: Flooded Paddy, scale 0 to 100, 0 no effect, 100 complete control; for Plant response rating, Barnyardgrass: flooded paddy test, scale 0 to 100 (0 no effect, 100 complete control)
Method in brief: (§2)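 Visual ratings (0 = no effect, 100 = complete control) were made 12–14 days after treatment, relative to greenhouse controls. Plants in the flooded paddy test were rice, smallflower flatsedge, duck salad and barnyardgrass, treated at the 2-leaf stage.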

[4] = test system: duck salad (Heteranthera limosa); assay: Test C flooded paddy test; settings: for Ducksalad plant response rating: Flooded Paddy, scale 0 to 100, 0 no effect, 100 complete control; for Plant response rating, Ducksalad: flooded paddy test, scale 0 to 100 (0 no effect, 100 complete control)
Method in brief: as §2

rice (Oryza saliva) = assay: Test C flooded paddy test; settings: for Rice plant response rating: Flooded Paddy, scale 0 to 100, 0 no effect, 100 complete control; for Plant response rating, Rice: flooded paddy test, scale 0 to 100 (0 no effect, 100 complete control)
Method in brief: as §2

[5] = test system: smallflower flatsedge (Cyperus difformis); assay: Test C flooded paddy test; settings: for Flatsedge plant response rating: Flooded Paddy, scale 0 to 100, 0 no effect, 100 complete control; for Plant response rating, Flatsedge: flooded paddy test, scale 0 to 100 (0 no effect, 100 complete control)
Method in brief: as §2

[6] = Rate 125 g/ha, scale 0 (no effect) to 100 (complete control)
[7] = Rate 500 g/ha, scale 0 to 100, 0 is no effect, 100 is complete control

SMILES: O=C1C(n2ccc(C3CCC3)n2)OCN1c1cccc(C(F)(F)F)c1 (stereo not shown) [Compound 39]
- Plant response rating, Blackgrass [1, 6]: 0
- Plant response rating, Blackgrass [1, 7]: 0
- Plant response rating, Lambsquarters [2, 6]: 70
- Plant response rating, Lambsquarters [2, 7]: 90
- Barnyardgrass plant response rating ([3]; Rate 250 g/ha): 100
- Barnyardgrass plant response rating ([3]; Rate 500 g/ha): 100
- Plant response rating, Barnyardgrass ([3]; Rate 62 g/ha): 80
- Plant response rating, Barnyardgrass ([3]; Rate 125 g/ha): 80
- Ducksalad plant response rating ([4]; Rate 250 g/ha): 70
- Ducksalad plant response rating ([4]; Rate 500 g/ha): 100
- Plant response rating, Ducksalad ([4]; Rate 62 g/ha): 20
- Plant response rating, Ducksalad ([4]; Rate 125 g/ha): 60
- Rice plant response rating (rice (Oryza saliva); Rate 250 g/ha): 0
- Rice plant response rating (rice (Oryza saliva); Rate 500 g/ha): 70
- Plant response rating, Rice (rice (Oryza saliva); Rate 62 g/ha): 0
- Plant response rating, Rice (rice (Oryza saliva); Rate 125 g/ha): 0
- Flatsedge plant response rating ([5]; Rate 250 g/ha): 100
- Flatsedge plant response rating ([5]; Rate 500 g/ha): 100
- Plant response rating, Flatsedge ([5]; Rate 62 g/ha): 90
- Plant response rating, Flatsedge ([5]; Rate 125 g/ha): 100

SMILES: CC(C)c1ccn(C2SCN(c3cccc(OC(F)F)c3)C2=O)n1 (stereo not shown) [Compound 44]
- Plant response rating, Blackgrass [1, 6]: 0
- Plant response rating, Blackgrass [1, 7]: 0
- Plant response rating, Lambsquarters [2, 6]: 20
- Plant response rating, Lambsquarters [2, 7]: 60
- Barnyardgrass plant response rating ([3]; Rate 250 g/ha): 100
- Barnyardgrass plant response rating ([3]; Rate 500 g/ha): 100
- Plant response rating, Barnyardgrass ([3]; Rate 62 g/ha): 90
- Plant response rating, Barnyardgrass ([3]; Rate 125 g/ha): 100
- Ducksalad plant response rating ([4]; Rate 250 g/ha): 100
- Ducksalad plant response rating ([4]; Rate 500 g/ha): 100
- Plant response rating, Ducksalad ([4]; Rate 62 g/ha): 50
- Plant response rating, Ducksalad ([4]; Rate 125 g/ha): 90
- Rice plant response rating (rice (Oryza saliva); Rate 250 g/ha): 90
- Rice plant response rating (rice (Oryza saliva); Rate 500 g/ha): 90
- Plant response rating, Rice (rice (Oryza saliva); Rate 62 g/ha): 80
- Plant response rating, Rice (rice (Oryza saliva); Rate 125 g/ha): 80
- Flatsedge plant response rating ([5]; Rate 250 g/ha): 100
- Flatsedge plant response rating ([5]; Rate 500 g/ha): 100
- Plant response rating, Flatsedge ([5]; Rate 62 g/ha): 90
- Plant response rating, Flatsedge ([5]; Rate 125 g/ha): 100

SMILES: O=C1C(n2ccc(C3CCC3)n2)SCN1c1cccc(OC(F)F)c1 (stereo not shown) [Compound 45]
- Plant response rating, Blackgrass [1, 6]: 0
- Plant response rating, Blackgrass [1, 7]: 0
- Plant response rating, Lambsquarters [2, 6]: 0
- Plant response rating, Lambsquarters [2, 7]: 0
- Barnyardgrass plant response rating ([3]; Rate 250 g/ha): 100
- Barnyardgrass plant response rating ([3]; Rate 500 g/ha): 100
- Plant response rating, Barnyardgrass ([3]; Rate 62 g/ha): 70
- Plant response rating, Barnyardgrass ([3]; Rate 125 g/ha): 100
- Ducksalad plant response rating ([4]; Rate 250 g/ha): 100
- Ducksalad plant response rating ([4]; Rate 500 g/ha): 100
- Plant response rating, Ducksalad ([4]; Rate 62 g/ha): 50
- Plant response rating, Ducksalad ([4]; Rate 125 g/ha): 80
- Rice plant response rating (rice (Oryza saliva); Rate 250 g/ha): 70
- Rice plant response rating (rice (Oryza saliva); Rate 500 g/ha): 100
- Plant response rating, Rice (rice (Oryza saliva); Rate 62 g/ha): 0
- Plant response rating, Rice (rice (Oryza saliva); Rate 125 g/ha): 50
- Flatsedge plant response rating ([5]; Rate 250 g/ha): 100
- Flatsedge plant response rating ([5]; Rate 500 g/ha): 100
- Plant response rating, Flatsedge ([5]; Rate 62 g/ha): 90
- Plant response rating, Flatsedge ([5]; Rate 125 g/ha): 100

SMILES: CC1(c2ccn(C3OCN(c4cccc(C(F)(F)F)c4)C3=O)n2)CC1 (stereo not shown) [Compound 62]
- Plant response rating, Blackgrass [1, 6]: 0
- Plant response rating, Blackgrass [1, 7]: 0
- Plant response rating, Lambsquarters [2, 6]: 0
- Plant response rating, Lambsquarters [2, 7]: 60
- Barnyardgrass plant response rating ([3]; Rate 250 g/ha): 20
- Barnyardgrass plant response rating ([3]; Rate 500 g/ha): 80
- Plant response rating, Barnyardgrass ([3]; Rate 62 g/ha): 0
- Plant response rating, Barnyardgrass ([3]; Rate 125 g/ha): 20
- Ducksalad plant response rating ([4]; Rate 250 g/ha): 0
- Ducksalad plant response rating ([4]; Rate 500 g/ha): 0
- Plant response rating, Ducksalad ([4]; Rate 62 g/ha): 0
- Plant response rating, Ducksalad ([4]; Rate 125 g/ha): 0
- Rice plant response rating (rice (Oryza saliva); Rate 250 g/ha): 50
- Rice plant response rating (rice (Oryza saliva); Rate 500 g/ha): 50
- Plant response rating, Rice (rice (Oryza saliva); Rate 62 g/ha): 0
- Plant response rating, Rice (rice (Oryza saliva); Rate 125 g/ha): 0
- Flatsedge plant response rating ([5]; Rate 250 g/ha): 90
- Flatsedge plant response rating ([5]; Rate 500 g/ha): 100
- Plant response rating, Flatsedge ([5]; Rate 62 g/ha): 0
- Plant response rating, Flatsedge ([5]; Rate 125 g/ha): 90

SMILES: CC1(c2ccn(C3SCN(c4cccc(OC(F)(F)F)c4)C3=O)n2)CC1 (stereo not shown) [Compound 63]
- Plant response rating, Blackgrass [1, 6]: 0
- Plant response rating, Blackgrass [1, 7]: 0
- Plant response rating, Lambsquarters [2, 6]: 60
- Plant response rating, Lambsquarters [2, 7]: 80
- Barnyardgrass plant response rating ([3]; Rate 250 g/ha): 70
- Barnyardgrass plant response rating ([3]; Rate 500 g/ha): 100
- Plant response rating, Barnyardgrass ([3]; Rate 62 g/ha): 20
- Plant response rating, Barnyardgrass ([3]; Rate 125 g/ha): 40
- Ducksalad plant response rating ([4]; Rate 250 g/ha): 80
- Ducksalad plant response rating ([4]; Rate 500 g/ha): 100
- Plant response rating, Ducksalad ([4]; Rate 62 g/ha): 20
- Plant response rating, Ducksalad ([4]; Rate 125 g/ha): 20
- Rice plant response rating (rice (Oryza saliva); Rate 250 g/ha): 40
- Rice plant response rating (rice (Oryza saliva); Rate 500 g/ha): 40
- Plant response rating, Rice (rice (Oryza saliva); Rate 62 g/ha): 0
- Plant response rating, Rice (rice (Oryza saliva); Rate 125 g/ha): 20
- Flatsedge plant response rating ([5]; Rate 250 g/ha): 100
- Flatsedge plant response rating ([5]; Rate 500 g/ha): 100
- Plant response rating, Flatsedge ([5]; Rate 62 g/ha): 90
- Plant response rating, Flatsedge ([5]; Rate 125 g/ha): 100

SMILES: CC1(c2ccn(C3SCN(c4cccc(C(F)(F)F)c4)C3=O)n2)CC1 (stereo not shown) [Compound 64]
- Plant response rating, Blackgrass [1, 6]: 0
- Plant response rating, Blackgrass [1, 7]: 0
- Plant response rating, Lambsquarters [2, 6]: 70
- Plant response rating, Lambsquarters [2, 7]: 80
- Barnyardgrass plant response rating ([3]; Rate 250 g/ha): 80
- Barnyardgrass plant response rating ([3]; Rate 500 g/ha): 100
- Plant response rating, Barnyardgrass ([3]; Rate 62 g/ha): 20
- Plant response rating, Barnyardgrass ([3]; Rate 125 g/ha): 80
- Ducksalad plant response rating ([4]; Rate 250 g/ha): 90
- Ducksalad plant response rating ([4]; Rate 500 g/ha): 90
- Plant response rating, Ducksalad ([4]; Rate 62 g/ha): 0
- Plant response rating, Ducksalad ([4]; Rate 125 g/ha): 30
- Rice plant response rating (rice (Oryza saliva); Rate 250 g/ha): 80
- Rice plant response rating (rice (Oryza saliva); Rate 500 g/ha): 90
- Plant response rating, Rice (rice (Oryza saliva); Rate 62 g/ha): 0
- Plant response rating, Rice (rice (Oryza saliva); Rate 125 g/ha): 20
- Flatsedge plant response rating ([5]; Rate 250 g/ha): 100
- Flatsedge plant response rating ([5]; Rate 500 g/ha): 100
- Plant response rating, Flatsedge ([5]; Rate 62 g/ha): 100
- Plant response rating, Flatsedge ([5]; Rate 125 g/ha): 100

SMILES: CCC(C)c1ccn(C2OCN(c3cccc(OC(F)(F)F)c3)C2=O)n1 (stereo not shown) [Compound 67]
- Plant response rating, Blackgrass [1, 6]: 0
- Plant response rating, Blackgrass [1, 7]: 0
- Plant response rating, Lambsquarters [2, 6]: 90
- Plant response rating, Lambsquarters [2, 7]: 100
- Barnyardgrass plant response rating ([3]; Rate 250 g/ha): 100
- Barnyardgrass plant response rating ([3]; Rate 500 g/ha): 100
- Plant response rating, Barnyardgrass ([3]; Rate 62 g/ha): 60
- Plant response rating, Barnyardgrass ([3]; Rate 125 g/ha): 70
- Ducksalad plant response rating ([4]; Rate 250 g/ha): 100
- Ducksalad plant response rating ([4]; Rate 500 g/ha): 100
- Plant response rating, Ducksalad ([4]; Rate 62 g/ha): 50
- Plant response rating, Ducksalad ([4]; Rate 125 g/ha): 90
- Rice plant response rating (rice (Oryza saliva); Rate 250 g/ha): 60
- Rice plant response rating (rice (Oryza saliva); Rate 500 g/ha): 90
- Plant response rating, Rice (rice (Oryza saliva); Rate 62 g/ha): 20
- Plant response rating, Rice (rice (Oryza saliva); Rate 125 g/ha): 40
- Flatsedge plant response rating ([5]; Rate 250 g/ha): 100
- Flatsedge plant response rating ([5]; Rate 500 g/ha): 100
- Plant response rating, Flatsedge ([5]; Rate 62 g/ha): 100
- Plant response rating, Flatsedge ([5]; Rate 125 g/ha): 100

SMILES: CC1(c2ccn(C3OCN(c4cccc(OC(F)(F)F)c4)C3=O)n2)CC1 (stereo not shown) [Compound 69]
- Plant response rating, Blackgrass [1, 6]: 70
- Plant response rating, Blackgrass [1, 7]: 70
- Plant response rating, Lambsquarters [2, 6]: 80
- Plant response rating, Lambsquarters [2, 7]: 80
- Barnyardgrass plant response rating ([3]; Rate 250 g/ha): 100
- Barnyardgrass plant response rating ([3]; Rate 500 g/ha): 100
- Plant response rating, Barnyardgrass ([3]; Rate 62 g/ha): 30
- Plant response rating, Barnyardgrass ([3]; Rate 125 g/ha): 30
- Ducksalad plant response rating ([4]; Rate 250 g/ha): 0
- Ducksalad plant response rating ([4]; Rate 500 g/ha): 20
- Plant response rating, Ducksalad ([4]; Rate 62 g/ha): 0
- Plant response rating, Ducksalad ([4]; Rate 125 g/ha): 0
- Rice plant response rating (rice (Oryza saliva); Rate 250 g/ha): 40
- Rice plant response rating (rice (Oryza saliva); Rate 500 g/ha): 80
- Plant response rating, Rice (rice (Oryza saliva); Rate 62 g/ha): 0
- Plant response rating, Rice (rice (Oryza saliva); Rate 125 g/ha): 20
- Flatsedge plant response rating ([5]; Rate 250 g/ha): 100
- Flatsedge plant response rating ([5]; Rate 500 g/ha): 100
- Plant response rating, Flatsedge ([5]; Rate 62 g/ha): 100
- Plant response rating, Flatsedge ([5]; Rate 125 g/ha): 100
